These results are taken from article PMC11674377 (2024).

Assay [1] concerns SDF-Aptamer (DNA, aptamer) ATTGCAAACCCTCTACCAACAATCGTACTCGTTCGACGTGA
Put plainly: fluorescent graphene oxide assay, Langmuir one-ligand fit. The conditions noted are these: K+ 2.7 mM, Na+ 137 mM; PBS (0.01 M phosphate, pH 7.4), 25 °C; aptamer 1 µM; unbound aptamer removed with 4 mg/mL GO; salt form used not stated (b30 mentions citrate).

The test system of assay [2] is sildenafil aptamer molecular gate (SDF-Aptamer + 3' TGCAAT) (DNA, aptamer) ATTGCAAACCCTCTACCAACAATCGTACTCGTTCGACGTGATGCAAT
Put plainly: TMB release from aptamer-gated silica nanoparticles. As to conditions: 1 µM sildenafil; immobilised aptamer gate; about 63 ± 6.2% of TMB released; control leakage 7.2 ± 4.4%.

By KD is commonly meant the equilibrium constant for the complex coming apart. With `CCCc1nn(C)c2c(=O)[nH]c(-c3cc(S(=O)(=O)N4CCN(C)CC4)ccc3OCC)nc12`, the KD in assay [1] came to 205.3 ± 38.1 nM. Moreover, in assay [2], the binding result is reported as “yes”.
